Laboratory results from patent US10485881B2, “Nanoparticle drug conjugates” (Memorial Sloan Kettering Cancer Center, priority 2014, dated 2019).
“Also recorded” adds a separate entry of the source. Where two headings read alike, the source gives them in different places.

Legend:
[1] = target: cathepsin B (Homo sapiens, UniProt P07858); assay: Drug release assay with cathepsin B; assay type: biochemical; details: free linker-drug constructs; for half-life at 25 μM: HPLC at 348 nm, sodium acetate buffer pH 5.0, NH = no hydrolysis, read-out: Cathepsin B t1/2 (time when 50% of the drug is released from linker); for Hydrolysis / drug release in the presence of cathepsin B: monitored by HPLC or LCMS
Description: Drug Release Assays with Cathepsin B:
For analysis, 70 μL portions were removed and quenched with acid (HCl) at specified time points (e.g., 5, 15, 30, 60, 120 minutes or longer) then run on HPLC/LCMS. NDCs were stored in water at 4° C. […] Enzyme activity was tested prior to drug release assay using the substrate Z-Arg-Arg-para-nitro-aniline. The % Free Drug (FIGS. 4A, 4B, 6A and 6B) is the quantity of free drug divided by the initial quantity of drug loaded for the linker-drug construct or NDC, as described in the previous paragraph. All buffers and solutions were prepared using ultra-pure water (18 MΩ-cm resistivity).

[2] = target: T1, trypsin (Bos taurus, UniProt P00760); assay: Drug release assay with trypsin; assay type: biochemical, bovine; details: for half-life at 25 μM: bovine, pH 7.2, free linker-drug constructs, HPLC at 348 nm, 37° C., phosphate buffer pH 7.2, read-out: Trypsin t1/2 (time when 50% of the drug is released from linker); for Time to complete hydrolysis / complete release of drug with trypsin: free linker-drug constructs, monitored by HPLC or LCMS
T1 construct: purchased Sigma-Aldrich
T1 sequence (P00760 24-246): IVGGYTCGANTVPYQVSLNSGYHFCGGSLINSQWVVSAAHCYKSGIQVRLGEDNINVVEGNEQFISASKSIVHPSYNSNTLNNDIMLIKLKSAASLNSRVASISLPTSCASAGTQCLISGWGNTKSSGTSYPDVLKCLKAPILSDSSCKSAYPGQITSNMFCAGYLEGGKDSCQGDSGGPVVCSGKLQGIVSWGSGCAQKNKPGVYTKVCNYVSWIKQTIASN
Description: Drug Release Assays with Trypsin:
For analysis, 70 μL portions were removed and quenched with acid (HCl) at specified time points (e.g., 5, 15, 30, 60, 120 minutes or longer) then run on HPLC/LCMS. NDCs were stored in water at 4° C. Trypsin stocks were prepared as follows: 1 mg of trypsin was dissolved in 1 mL water, aliquoted, then immediately flash frozen and stored at −80° C. for up to four weeks. Enzyme activity was tested prior to drug release assay using the substrate Z-Arg-Arg-para-nitro-aniline. The % Free Drug (FIGS. 3 and S3) is the quantity of free drug divided by the initial quantity of drug loaded for the linker-drug construct or NDC. The quantity of free drug is determined by area of the HPLC peak corresponding to the released drug at 348 nm. The quantity of drug loaded is the area of the HPLC peak, at 348 nm, for the linker-drug construct or NDC prior to enzyme treatment. As the C'dot-(Cy5)-PEG-mal has background absorbance at 348 nm, a background subtraction for the NDC is necessary. All buffers and solutions were prepared using ultra-pure water (18 Me-cm resistivity).

[3] = target: EGFR (phospho-Tyr168) in H1650 cells (Homo sapiens, UniProt P00533, DEL746-750); assay: PhosphoEGFR assay with H1650 cells (western blot); details: 1 and 10 μM, compared with gefitinib
Description: Serum starved cells were incubated with each compound over a period of 18 hours, then subject to EGF stimulation.
PhosphoEGFR Assay with H1650 Cells:
H1650 cells were seeded (1.5 million cells) in 6-well plates with 2 ml of 10% FBS DEM medium and grown for 24 hrs. Cells were washed with 1 mL of serum free DEM medium, then incubated with gefitinib or NDCs at indicated concentrations overnight (18 hrs). Cells were then treated with 50 ng/mL EGF for 5 minutes, then washed with 1 mL of PBS. […] 1 mL of 10% FBS DEM medium was added to wells, and cells were transferred to 15 mL conical tubes containing 10 mL of 10% FBS DEM medium. Cells were spun down at 3000 rpm for 5 minutes at 4° C. The cell pellets were washed with 1 mL cold PBS, transferred to 1.5 mL tubes, and spun down. PBS was decanted and 70 μL of RIPA (containing protease and phosphatase inhibitors) was added to the pellet, titurated, and incubated for 10 minutes on ice. Tubes were spun at maximum speed for 10 minutes at 4° C. Lysate was transferred to new 1.5 ml tubes and stored at −80° C. Protein concentrations were determined by the Bradford assay. Western blots were run on a Life Technologies apparatus, using Novex 8% tris-glycine gels (1.5 mm×15 wells), tris-glycine SDS running buffer, NuPAGE transfer buffer, 0.1% Tween-20 in 1×TBS washing buffer, and 5% milk in the washing buffer as the blocking buffer. […]

COc1cc2ncnc(Nc3ccc(F)c(Cl)c3)c2cc1OCCCNC(=O)OCc1ccc(NC(=O)[C@H](CCCCN)NC(=O)[C@H](Cc2ccccc2)NC(=O)CCOCCOCCOCCOCCOCCOCCOCCOCCS)cc1 [Phe-Lys-PABC-APdMG (5), HS-dPEG8-Phe-Lys-PABC-aminopropyl-dMG] was tested, and the half-life at 25 μM ([1]; cathepsin B (isolated enzyme)) was under 1 min, the half-life at 25 μM [2] was under 1 min and the “Time to complete hydrolysis / complete release of drug with trypsin” value [2] was 10 min.
For “Amino-dPEG2-aminopropyl-dMG [dPEG2APdMG 2]”, the “Inhibition of phospho-Tyr168 in EGFR” value [3] was “reduced activity”.
In the case of COc1cc2ncnc(Nc3ccc(F)c(Cl)c3)c2cc1OCCCNC(=O)CCOCCOCCNC(=O)[C@H](CCCNC(=N)N)NC(=O)[C@H](Cc1ccccc1)NC(=O)CCOCCOCCNC(=O)CCOCCOCCNC(=O)CCOCCOCCNC(=O)CS [Phe-Arg-dPEG2APdMG (4), Mercaptoacetamido-(dPEG2)3-Phe-Arg-dPEG2APdMG], the half-life at 25 μM [1] was 110 min, the “Hydrolysis / drug release in the presence of cathepsin B” value [1] was “completely hydrolyzed” and the half-life at 25 μM [2] was at most 2 min. The “Time to complete hydrolysis / complete release of drug with trypsin” value [2] was 10 min.
For COc1cc2ncnc(Nc3ccc(F)c(Cl)c3)c2cc1OCCCNC(=O)[C@H](CCCNC(=N)N)NC(=O)[C@H](Cc1ccccc1)NC(=O)CCOCCOCCNC(=O)CCOCCOCCNC(=O)CCOCCOCCNC(=O)CS [Phe-Arg-APdMG (3), Mercaptoacetamido-(dPEG2)3-Phe-Arg-APdMG], the “Hydrolysis / drug release in the presence of cathepsin B” value [1] was “no hydrolysis was observed; also recorded: no drug release was observed”, the half-life at 25 μM [2] was 9 min and the “Time to complete hydrolysis / complete release of drug with trypsin” value [2] was at most 60 min.
